From PubChem BioAssay (NCI)
Values joined by “and” are separate entries in the source; they are usually repeats but may differ in a detail not shown here. Equal entries are not always repeated.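 Step 1: Grow cells in 96-well plates. Step 2: Expose to compound for 48 hours at 5 concentrations. Step 3: Interpolate endpoints linearly; if unreached, use highest concentration. GI50: concentration for 50% inhibition of growth. TGI marks complete inhibition of growth.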

What was measured:
Test in all cases: NCI anticancer screen, dose series, 48 h
A498 renal = system: A498 renal
HOP-92 NSCLC = system: HOP-92 NSCLC
COLO 205 colon = system: COLO 205 colon
LOX IMVI melanoma = system: LOX IMVI melanoma
MOLT-4 leukemia = system: MOLT-4 leukemia
MCF7 breast = system: MCF7 breast
M14 melanoma = system: M14 melanoma
HCT-116 colon = system: HCT-116 colon
U251 CNS = system: U251 CNS
PC-3 prostate = system: PC-3 prostate

Row | Structure (SMILES) | GI50 (A498 renal) | TGI (A498 renal) | GI50 (HOP-92 NSCLC) | TGI (HOP-92 NSCLC) | GI50 (COLO 205 colon) | TGI (COLO 205 colon) | GI50 (LOX IMVI melanoma) | TGI (LOX IMVI melanoma) | GI50 (MOLT-4 leukemia) | TGI (MOLT-4 leukemia) | GI50 (MCF7 breast) | TGI (MCF7 breast) | GI50 (M14 melanoma) | TGI (M14 melanoma) | GI50 (HCT-116 colon) | TGI (HCT-116 colon) | GI50 (U251 CNS) | TGI (U251 CNS) | GI50 (PC-3 prostate) | TGI (PC-3 prostate)
1 | CNC(=O)c1cccc2cc(Oc3ccnc4cc(OCC5(N)CC5)c(OC)cc34)ccc12 | 167 nM | 3120 nM | 6890 nM | 21000 nM | 8660 nM | 23700 nM | 3890 nM | 17100 nM | 3490 nM | 21600 nM | 3890 nM | 17800 nM | 8470 nM | 24300 nM | 5200 nM | 17800 nM | 9430 nM | 23300 nM | 11000 nM | 25900 nM
2 | COc1cc2ccccc2oc1=O |  | > 100000 nM |  | > 100000 nM |  | > 100000 nM |  | > 100000 nM |  | > 100000 nM |  | > 100000 nM |  | > 100000 nM |  | > 100000 nM |  | > 100000 nM |  | > 100000 nM
3 | CNCCCn1c2c(c3ccc([N+](=O)[O-])cc3c1=O)C(=O)c1cc(OC)cnc1-2 | 33.8 nM | 276 nM | 237 nM | 2440 nM | 56.9 nM | 636 nM | 25.9 nM | 136 nM | 30.6 nM | 293 nM | 13.2 nM | 1060 nM | 39.4 nM | 358 nM | 28.3 nM | 186 nM | 36.4 nM | 251 nM | 130 nM | 1880 nM
4 | COC(=O)c1ccccc1OCc1cc(=O)oc2ccc(C)cc12 |  | > 100000 nM |  | > 74700 nM |  | > 100000 nM |  | > 100000 nM |  | > 100000 nM |  | > 100000 nM |  | > 100000 nM |  | > 100000 nM |  | 35400 nM |  | > 100000 nM
5 | O=C(O)C1OC1(c1cccc(Cl)c1)c1ccccc1Cl (configuration not stated) |  | > 100000 nM |  | 94400 nM |  | > 100000 nM |  | 44000 nM |  | 82400 nM |  | > 100000 nM |  | 42200 nM |  | 43700 nM |  | 25400 nM |  | 57900 nM
6 | COc1ccc2c(c1)nnn1c3ncccc3c(N=O)c21 | 1270 nM and 6230 nM | 6260 nM and 22500 nM | 42.4 nM and 117 nM |  | 681 nM and 1220 nM | 2740 nM | 799 nM and 552 nM | 7060 nM and 2560 nM | 9.4 nM and 12.3 nM |  | 132 nM and 336 nM | 814 nM and 2210 nM | 1570 nM and 3440 nM |  | 60 nM | 910 nM | 720 nM and 1180 nM | 31300 nM and 12900 nM | 2050 nM | 92700 nM
7 | C=C1/C(=C\C=C2/CCC[C@]3(C)[C@@H]([C@H](C)CCCC(C)(C)O)CC[C@@H]23)C[C@@H](OC(=O)CBr)C[C@@H]1O | 469 nM | 3170 nM | 138 nM | 445 nM | 2580 nM | 19600 nM | 147 nM | 304 nM | 371 nM | 2050 nM | 1380 nM | 5740 nM | 2710 nM | 8740 nM | 2220 nM | 5900 nM | 4510 nM | 18800 nM | 1110 nM | 5880 nM
8 | COc1cc(Nc2c(C#N)cnc3cc(OCCCN4CCN(C)CC4)c(OC)cc23)c(Cl)cc1Cl | 586 nM | 2220 nM | 2080 nM | 10500 nM | 1600 nM | 3030 nM | 1150 nM | 2750 nM | 1910 nM | 7380 nM | 2790 nM | 17800 nM | 1300 nM | 3030 nM | 746 nM | 4710 nM | 3100 nM | 8370 nM | 5020 nM | 16700 nM
9 | COc1cc2oc3cc(=O)cc4oc(-c5ccccc5)cc(c2c2c1CCC(c1ccccc1)O2)c43 (configuration not stated) |  | > 100000 nM |  | > 100000 nM |  | 46100 nM |  | > 100000 nM |  | > 100000 nM |  | 59200 nM |  | 33400 nM |  | > 100000 nM |  | > 100000 nM |  | > 100000 nM
10 | COc1cc2c3c(n(CCCCN)c(=O)c2cc1OC)-c1cc2c(cc1C3=O)OCO2 | 7810 nM | 17000 nM | 487 nM | 2430 nM | 1040 nM | 6170 nM | 107 nM | 529 nM | 114 nM | 2950 nM | 19.1 nM | 1130 nM | 1360 nM | 6220 nM | 234 nM | 797 nM | 407 nM | 2860 nM | 159 nM | 583 nM
11 | Cc1ccc(-c2nc(C#N)c(S(=O)(=O)n3nc(C)cc3N)o2)cc1 | 16300 nM | 32900 nM | 2270 nM | 5710 nM | 2150 nM | 4190 nM | 1860 nM | 3590 nM | 1970 nM | 4770 nM | 3070 nM | 15500 nM | 3350 nM | 14400 nM | 3160 nM | 13200 nM | 13600 nM | 26500 nM | 13800 nM | 29800 nM
12 | COc1cc(NC(C)CCCN)c2ncccc2c1 (configuration not stated) | 30600 nM and 76700 nM | > 100000 nM | 27200 nM and 62600 nM | > 100000 nM |  | 41200 nM and 64000 nM |  | > 100000 nM |  | > 100000 nM |  | 31500 nM | 16800 nM and 43100 nM | 34500 nM and > 73600 nM | 34600 nM and 75800 nM | > 100000 nM | 39000 nM and 86100 nM | > 100000 nM |  | > 100000 nM
13 | COc1ccc2c(=O)cc(-c3ccncc3)oc2c1OC |  | 49800 nM |  | 55200 nM |  | 30800 nM |  | > 100000 nM |  | 41700 nM |  | > 100000 nM |  | 39000 nM |  | > 100000 nM |  | > 100000 nM |  | > 100000 nM
14 | COC(=O)[C@@]12OC[C@]34[C@H]([C@@H](O)[C@@H]1O)[C@@]1(C)[C@H](O)C(=O)C=C(C)[C@@H]1C[C@H]3OC(=O)C(OC(C)=O)[C@@H]24 (some centres not stated) | 14.6 nM | 41.3 nM | 36.4 nM | 309 nM | 40.8 nM | 178 nM | 15.2 nM | 31.1 nM | < 14.5 nM | 48.7 nM | 21.4 nM | 70.1 nM | 26.1 nM | 78.5 nM | 22 nM | 50.3 nM | 20.7 nM | 44.3 nM | 33.4 nM | 134 nM
15 | C=CCC1(O)c2ccccc2C(=O)c2c(NCCN(CC(=O)OCC)CC(=O)OCC)cccc21 (configuration not stated) | > 100000 nM | > 100000 nM | > 100000 nM | > 100000 nM | > 100000 nM | > 100000 nM | > 100000 nM | > 100000 nM | 75600 nM | > 100000 nM | > 100000 nM | > 100000 nM | > 100000 nM | > 100000 nM | > 100000 nM | > 100000 nM | > 100000 nM | > 100000 nM | 97100 nM | > 100000 nM
16 | COc1cccc2c1C(=O)c1c(O)c3c(c(O)c1C2=O)CC(O)(C(O)CO)CC3OC1CC(N2CCOCC2)C(O)C(C)O1 (configuration not stated) | 13.9 nM |  | 18.8 nM | 65.2 nM | 27.8 nM |  | 2.85 nM | 150 nM and 58.6 nM | 9.7 nM and 24.3 nM | 205 nM and 185 nM |  | 89.5 nM | 15.8 nM | 28.8 nM and 38.1 nM |  | 143 nM | 15.5 nM | 1260 nM and 1050 nM |  | 144 nM
17 | CC1OC(n2c3ccccc3c3c4c(c5c6ccccc6[nH]c5c32)C(=O)N(CCN[C@@H]2CCC[C@H]2N)C4=O)CC(O)C1O (some centres not stated) | 1930 nM | 8240 nM | 2310 nM | 9060 nM | 1010 nM | 4190 nM | 835 nM | 2680 nM | 747 nM | 4740 nM | 768 nM | 2050 nM | 1630 nM | 7140 nM | 1320 nM | 5540 nM | 1050 nM | 5740 nM | 1550 nM | 6130 nM
18 | CC1CC2OC(=O)C(C)C2CC2(C)C(OC3OC(CO)C(O)C(O)C3O)OCCC12 (configuration not stated) |  | > 100000 nM |  | > 100000 nM |  | > 100000 nM |  | > 100000 nM |  | > 100000 nM |  | > 100000 nM |  | > 100000 nM |  | > 100000 nM |  | > 100000 nM |  | > 100000 nM
19 | Cc1cc(NCCN(C(C)C)C(C)C)nc(/N=C(\N)Nc2ccc(Cl)c(C(F)(F)F)c2)n1 | 139 nM | 1420 nM | 163 nM | 1010 nM | 164 nM | 305 nM | 193 nM | 365 nM | 383 nM | 1470 nM | 269 nM | 851 nM | 181 nM | 323 nM | 275 nM | 2380 nM | 194 nM | 400 nM | 596 nM | 2450 nM
20 | CN[C@H](C#Cc1c(F)ccc2c1/C(=C/c1[nH]ccc1OC)C(=O)N2)CO | 452 nM | 3350 nM | 3170 nM | 11800 nM | 897 nM | 3390 nM | 344 nM | 2540 nM | 386 nM | 3800 nM | 569 nM | 3680 nM | 403 nM | 3140 nM | 136 nM | 5210 nM | 323 nM | 2940 nM | 1030 nM | 10800 nM
21 | O=[N+]([O-])c1ccc2c(c1)Cc1cc(N=Cc3ccc4c(c3)OCO4)ccc1-2 |  | > 100000 nM |  | > 100000 nM |  | > 100000 nM |  | > 100000 nM |  | > 100000 nM |  | > 100000 nM |  | > 100000 nM |  | > 100000 nM |  | > 100000 nM |  | > 100000 nM
